Experiments:
K. pneumoniae SI-27 = test: Chequerboard analysis with polymyxin E1 (average FIC index); type: cell-based, Klebsiella pneumoniae; conditions: K. pneumoniae SI-27 (colistin-resistant); compound + polymyxin E1
[1] = system: Klebsiella pneumoniae ATCC 13833; test: microbe, parasite or virus in culture; type: cell-based
Description: (§1) Growth inhibition or killing of bacteria was investigated using conventional methods widely described in the scientific literature. Parameters such as the Minimum Inhibitory Concentration (MIC) were determined as described in Clinical Laboratory Standard Institute (CLSI) document M07 “Methods for Dilution Antimicrobial Susceptibility Tests for Bacteria That Grow Aerobically, 11th Edition” (2018). Synergistic activity of the compounds described in the present specification were determined by measuring the variation of the MIC's compound in the absence and presence of a sub-inhibitory concentration of a suitable antibacterial agent, such as polymyxin E1. Furthermore, the Fractional Inhibitory Concentrations (FICs) were measured using a chequerboard analysis to determine the average FIC index (FICI), whose value is known to characterize the interaction between two compounds and/or drugs (≤0.5, synergistic interaction; >0.5 and <2, no interaction, additive effect; ≥2, antagonistic interaction). Furthermore, the selectivity of the compounds was investigated by measuring their cytotoxic effect on mammalian cell lines (e.g. HeLa cells).
(§2) Several methods were used to investigate the synergistic activity of the compounds, including (a) the determination of the MIC in the presence of a sub-inhibitory concentration of a suitable antibacterial agent, (b) the determination of the average FICI using a chequerboard analysis and (c) the time-kill curve analysis of a suitable agent (at a sub-inhibitory concentration) in the absence and presence of the pyrazolo[4,3-b]pyridin-6-carboxamide compound at a fixed concentration of 2 or 8 mg/L.
(§3) The MIC of the compound was determined alone and in the presence of a fixed and sub-inhibitory concentration of a suitable antibacterial agent of the polymyxin class, such as polymyxin E1 (colistin). The potentiation fold was computed as the ratio MICcompound/MICcompound+polymyxin E. Tested organisms included Escherichia coli CCUG^TKlebsiella pneumoniae ATCC 13833 and Acinetobacter baumannii ATCC 17978, which show a colistin MIC of 0.5, 0.5 and 1 mg/L, respectively.

[2] = system: Acinetobacter baumannii ATCC 17978; test: microbe, parasite or virus in culture; type: cell-based
Description: as §1, §2, §3

Escherichia coli CCUG^T = test: microbe, parasite or virus in culture; type: cell-based; conditions: Escherichia coli
Description: as §1, §2, §3

K. pneumoniae SI-4B = test: Chequerboard analysis with polymyxin E1 (average FIC index); type: cell-based, Klebsiella pneumoniae; conditions: K. pneumoniae SI-4B (colistin-resistant); compound + polymyxin E1

`CCCCn1c(=O)c(C(=O)NC23CC4CC(CC(C4)C2)C3)c(O)c2nn(CCO)cc21` [Im, N-(Adamantan-1-yl)-4-(1-butyl)-4,5-dihydro-7-hydroxy-2-(2-hydroxyethyl)-5-oxo-2H-pyrazolo[4,3-b]pyridin-6-carboxamide] was tested, and the “Average FIC index” value (K. pneumoniae SI-27) was 0.41, the Potentiation fold ([1]; K. pneumoniae ATCC 13833, ratio MICcompound/MICcompound+polymyxin E) was at least 64 and the “MIC in presence of colistin” value ([1]; K. pneumoniae ATCC 13833, with 0.25xMIC polymyxin E1 (0.12 mg/L)) was 8 µg/mL. For the same molecule, the MIC ([1]; Klebsiella pneumoniae, ATCC13833) was over 512 µg/mL, the Potentiation fold ([2]; A. baumannii ATCC 17978, ratio MICcompound/MICcompound+polymyxin E) was at least 64 and the “MIC in presence of colistin” value ([2]; A. baumannii ATCC 17978, with 0.25xMIC polymyxin E1 (0.25 mg/L)) was 8 µg/mL. For the same molecule, the MIC ([2]; Acinetobacter baumannii, ATCC17978) was over 512 µg/mL, the MIC (Escherichia coli CCUG^T) was over 512 µg/mL and the “Average FIC index” value (K. pneumoniae SI-4B) was 0.31.

From patent US12358919B2, “Antibacterial compounds” (Universita' degli Studi di Siena, priority 2019, dated 2025)
